Values of other authors in patent publication US8481574B2, “Compounds as cannabinoid receptor ligands” (priority 2006, dated 2013).

What was measured:
mice = settings: model for post-menopausal osteoporosis
[1] = test system: CB1 receptor knockout mice
[2] = test system: apolipoprotein E knockout mice; settings: low doses
microglia = settings: in vitro
animal models of pain = settings: animal models of acute thermal pain, persistent pain, inflammatory pain and neuropathic pain
[3] = at fully efficacious doses
rat = rat formalin model of persistent pain
rodent models of pain = settings: rodent models of neuropathic, incisional, and both chronic and acute inflammatory pain

SR144528
effect on osteoclast activity (osteoclast): inhibit osteoclast activity
effect on ovariectomy-induced bone loss (mice): reverse ovariectomy-induced bone loss

(−)-Δ^9-Tetrahydrocannabinol [Δ^9-THC]
analgesic efficacy [1]: retains some analgesic efficacy
effect on progression of atherosclerotic lesions [2]: slowed the progression of atherosclerotic lesions

CCCC(C)(C)c1ccc2c(c1)OC(C)(C)[C@@H]1CC=C(C)C[C@@H]21 [JWH-133]
effect on β-amyloid-induced microglial activation and neurotoxicity (microglia): abrogated β-amyloid-induced microglial activation and neurotoxicity

CN1CCCCC1Cn1cc(C(=O)c2cc([N+](=O)[O-])ccc2I)c2ccccc21 (stereo not shown) [AM-1241]
analgesic efficacy (animal models of pain): robust analgesic efficacy
CB1 receptor-mediated CNS side effects [3]: devoid of typical CB1 receptor-mediated CNS side effects

CCCCCCC(C)(C)c1cc(OC)c([C@@H]2C=C(CO)[C@@H]3C[C@H]2C3(C)C)c(OC)c1 [HU-308]
antinociceptive response (rat): elicits an antinociceptive response

COc1ccc2c(c1)c(CCN1CCOCC1)c(C)n2C(=O)c1cccc(Cl)c1Cl [GW405833]
efficacy in pain models (rodent models of pain): efficacious
CB1 receptor-mediated CNS side effects [3]: devoid of typical CB1 receptor-mediated CNS side effects
